Data: patent publication US20050163801A1, “Method of inducing apoptosis and compositions therefor” (Kyowa Engineering Co., Ltd., priority 2001, published 2005)

Assays:
Format in all cases: cell-based
HL60 cell line [1] = assay: Cell growth suppression activity (Test 1), cell number by counting chamber
Description: 1. Cell growth suppression activity (Test 1): For assay, the Collagen gel droplet embedded culture-drug sensitivity test (CD-DST method) and a counting chamber were used.
A method using a counting chamber was performed following the method described in Rinsho Kensaho Teiyo (Kanai's Manual of Clinical Laboratory Medicine), 30th Ed. (Aug. 20, 1993; Kanehara & Co., Ltd.; Tokyo).
Based on the results of measurement using HL60 cell lines, it became clear that the CD-DST method is not suitable for measuring the growth state of suspended cells. Therefore, the cell growth suppression activity was measured using a counting chamber.
First, growth of HL60 cell lines was examined in the presence of ABMK-22 at various concentrations to obtain a growth curve of the HL60 line. More specifically, an initial number of cells of HL 60 cell lines was set to be 200,000/ mL. ABMK-22 was added to have concentrations of 0.1, 0.25, 0.5, 0.75, 1, 2, 2.5, 3, 4and 5 mg/1 mL, respectively and cultured. The number of the cells was measured over time for four days.
Each of the symbols in FIG. 1 indicates the result of measurement of the number of the cells (number/ml) in the presence of ABMK-22 at the concentration of the number indicated in the lower part of FIG. 1 by the symbols. […]

[2] = tested on: dendric cells (DC) derived from human peripheral blood monocytes; assay: Immune activation activity: induction of dendritic cells from peripheral blood monocytes, CD80 expression by flow cytometry; settings: for DCs with increase in expression of CD80: analysed on seventh day
Description: Dendritic cells are involved in the establishment of immunity. Dendritic cells may also be called arborescent cells, dendritic leukocyte, or D cells. This is the generic term for cell groups having dendritic form derived from myelocytes distributed in various tissue organs in the living body except for the brain. The cell groups include lymphoid dendritic cells, Langerhans cells, veil cells, inter-connected cells, and interstitional cells. Accompanying an inflammation response caused by invasion of foreign matter, the cells perform pinocytosis, and move from a local spot via the vas afferens to an associated lymph node or to the spleen through bloodstream. The cells are known to start an immune response after they reach a T cell-dependent region by presenting an antigen in a form combined with class II antigen and by activating specific T cells. Namely, the cells play an important role in the immune system. In the present example, the immune activation activity of ABMK0415 and ABMK6873 were confirmed by assaying the induction power of monocytes to dendritic cells.
Peripheral blood of two healthy people was used as a material with donor consent.
PBMC were separated from a whole blood specimen which was collected with heparinization by a Ficoll-Paque density centrifugal separation method.
ABMK0415 and ABMK6873 were used as test samples. ABMK0415 and ABMK6873 were respectively dissolved in culture media of cells used for tests (10% FCS added RPMI-1640, 5% human AB serum added RPMI-1640) such that each mixture has a concentration of 200 mg/ml. The mixtures were filter-sterilized through a filter having a pore diameter of 0.22 μm to obtain test samples.
An effect of immune activation of novel compounds was examined in vittro through induction power for dendric cells (DC) derived from human peripheral blood monocytes.
PBMC was processed with a dish treatment for one hour with a carbon dioxide gas incubator. Thus, a monocyte-rich attachment cell fraction was obtained. The cells obtained were cultured in 5% human AB serum added RPMI-1640 (NIKKEN BIOLOGICAL MEDICAL RESEARCH), in the presence of 500 U/ml of GM-CSF (DIACLONE Research) and IL-4(BD Biosciences).
For culturing, a dish (NUNC) having a diameter of 3.5 cm was used. On the sixth day of culture, Picibanil and the novel compound were added such that the final concentration is 0.1 KE/ml for Picibanil, and 200 μg/ml for ABMK0415and ABMK6873. Picibanil (Chugai Pharmaceutical Co., Ltd.) was used as a positive control which has a DC induction power. […]
All DCs in the dish were collected on the seventh day after the culture started. The surface antigen thereof was analyzed by flow cytometry using a monoclonal antibody (anti-CD80; BD Bioscience). […]

HL-60 cell lines = assay: Apoptosis inducing activity (Test 3), TUNEL method; settings: culture for two days
Description: 3. Apoptosis inducing activity (Test 3): Measurement was performed using a terminal deoxynucleotidyl transferase (TdT)-mediated deoxyuridine triphosphate (dUTP)-biotin nick end-labeling method (TUNEL method). The TUNEL method is a method for identifying apoptosis on a tissue slice reported by Gavrieli et al. in 1992 (Yael Gavrieli et al., The Journal of Cell Biology, vol. 119, No.3, November, 1992, p. 493-501). The method is known to be a method which enables observation of apoptosis at the individual cell level at various states of morbidity and allows comparison with morphology changes. The TUNEL method was performed with HL-60 cell lines using Apoptosis in situ Detection Kit wako (Wako Pure Chemical Industries, Ltd.), according to the method of Gavrieli et al., supra.
The results of FIG. 9 show results measured for respective test groups. […] Based on the above results, cell death of HL60 cell lines by ABMK-22 are confirmed to be death caused by the induction of apoptosis.
For identifying the ingredient having the apoptosis induction activity in ABMK-22 obtained in Example 2, ABMK-22 was further purified and fractionated. The obtained ingredient was subjected to the method described in section “3. […]
Next, the apoptosis induction activity of a ly-ophilized powder of ABMK0415 and ABMK6873 were measured as described in section “3. […]

HL60 cell line [3] = assay: Cell differentiation inducing activity (Test 2), NBT reduction; settings: used by itself; NBT reducing power
Description: 2. Cell differentiation inducing activity (Test 2): Evaluation was made using Nitro blue tetrazolium (NBT) reduction power. NBT reduction was performed in accordance with the method of S. J. Collins et al. (Int. J. Cancer: 25, pages 213-218 (1980)). In brief, the method is as follows: about 2×10^5 HL60 cells were pelleted, and washed in RPMI-1640 medium. Then, the cells were suspended in RPMI-1640 medium containing 0.1% NBT and 100 ng/ml of phorbol ester (TPA), and cultured for forty minutes at 37° C. The resultant culture was observed under microscope and cells containing blue-black deposits were assessed as differentiated cells. In the presence of ABMK-22 at various concentrations, HL60 cells were cultured for four days and the differentiation inducing power of ABMK-22 was measured. The results of measuring NBT reducing power, which is an indicator of differentiation of a HL60 cell line under each concentration, are shown in FIG. 7. […] At a concentration of 4 mg/mL, about 33% of the cells that were alive were differentiated.

N[C@@H](CCC(=O)NNc1ccc(C=O)cc1)C(=O)O [ABMK6873]
growth of HL-60 cells (HL60 cell line [1]; 2.7×10^−4M): remarkably suppressed
growth of HL-60 cells (HL60 cell line [1]; various concentrations (2.07×10^−6M to 2.07×10^−4M ABMK0415; 2.7×10^−6M to 2.7×10^−4M ABMK6873)): suppress growth of HL-60 cells in nearly a concentration-dependent manner
expression induction of CD80 molecules ([2]; 200 μg/ml added on sixth day): remarkably strong expression induction of CD80 molecules
DCs with increase in expression of CD80 ([2]; 200 μg/ml added on sixth day): about 92%
DC inducing power ([2]; compared with Picibanil): stronger than that of Picibanil
cells in which apoptosis was induced (apoptosis positive cells) (HL-60 cell lines; 2.7×10^−4M): about 70%

CC1=C(/C=C/C(C)=C/C=C/C(C)=C/C(=O)O)C(C)(C)CCC1 [ATRA, all-trans retinoic acid]
concentration at which the agent by itself does not exhibit cell differentiation induction activity (HL60 cell line [3]): ≤ 10^−9 M

O=Cc1ccc(CO)n1CCCC(=O)O [ABMK0415, N-(3-carboxypropyl)-2-formyl-5-hydroxy-methylpyrrole]
DCs with increase in expression of CD80 ([2]; 200 μg/ml added on sixth day): about 20%
cells in which apoptosis was induced (apoptosis positive cells) (HL-60 cell lines; 2.07×10^−4M): about 35%

C=C1/C(=C\C=C2/CCC[C@]3(C)[C@@H]([C@H](C)CCCC(C)(C)O)CC[C@@H]23)C[C@@H](O)C[C@@H]1O [VD3, 1α, 25(OH)2D3]
concentration at which the agent by itself does not exhibit cell differentiation induction activity (HL60 cell line [3]): ≤ 10^−10 M
